From patent US4082735A, “Novel immunological adjuvant compounds and methods of preparation thereof” (Syntex (U.S.A.) Inc., priority 1976, dated 1978)

Columns and labels:
guinea pigs [1] = assay: Delayed hypersensitivity to arsanilic tyrosine, skin test after immunisation with antigen mixture plus test compound in FIA; type: in vivo; details: relative to FIA = 1; dose 50 μg per guinea pig, subcutaneous in FIA emulsion; skin test day 14, read at 24 hours
Description: (§1) The antigen mixture used consists of 20 μg. of arsanilic tyrosine and 100 μg. of protein [either bovine serum albumin (BSA) or ovalbumin]. The antigen mixture and the compounds to be tested, at the dose levels per guinea pig shown in the Table below, are dissolved in saline and emulsified with an equal volume of Freund's Incomplete Adjuvant (FIA). Groups of ten guinea pigs are used for each test compound and each guinea pig is injected with 0.1 ml. of the above emulsion, subcutaneously, in the nuchal region. Control groups are given the antigen mixture alone emulsified with FIA.
After 14 days, all animals are skin tested using 25 μg arsanilic tyrosine conjugated to either BSA or ovalbumin (BSA is used in this test when ovalbumin is present in the antigen mixture and vice versa) which is given in 0.1 ml saline intradermally in the flanks of the animals. […] Thus, the procedure is as follows: skin tests with a high degree of infiltration are scored as ++ and assigned the number 3; those with a lesser degree are scored as + and given the number 2, whereas skin reactions with no infiltration are scored as zero and assigned the number 1. […]

guinea pigs [2] = assay: Antibody titre (antibovine serum albumin or antiovalbumin antibodies) by passive hemagglutination or Farr radioimmune assay; type: in vivo; details: relative to FIA = 1; dose 50 μg per guinea pig, subcutaneous in FIA emulsion; sera day 42
Description: as §1
On day 42 all animals are bled by cardiac puncture and the sera assayed for antibovine serum albumin or antiovalbumin antibodies by the passive hemagglutination technique or by radiommune assay using the Farr techbique (P. Minden and R.S. Farr in "Handbook of Experimental Immunology", edited by D.M. Weir, Chapter 15, Volume 1, Blackwell Scientific Publications, Oxford) using 125 iodine labeled bovine serum albumin. Average potencies of these assays are presented in Column 2 of the Table below relative to FIA having the value of one.

dogs = assay: Side effects in dogs after inoculation; type: in vivo, dog; details: 4 dogs
Text: A. 48 Dogs were divided into groups and inoculated with the amounts of compound (per kilogram of body weight) as shown in the following Table: […]

cats = assay: Side effects in cats after inoculation; type: in vivo, cat; details: 1500 μg per kilogram
Text: B. Seven cats were divided into groups and inoculated with the amounts of compounds (per kilogram of body weight) as shown in the following Table: […]

| Compound | Average Potency, Delayed Hypersensitivity to Arsanilic Tyrosine (guinea pigs [1]) | Average Potency, Antibody Titre (guinea pigs [2]) | dogs showing severe depression, excessive salivation and vomiting (dogs; 240 μg per kilogram of body weight) | dogs showing severe depression, excessive salivation and vomiting (dogs; 600 μg per kilogram of body weight) | dogs showing severe depression, excessive salivation and vomiting (dogs; 1500 μg per kilogram of body weight) | condition at 24 hours post-inoculation (cats; 3 cats) | food intake (cats; 3 cats) | general condition following inoculation (cats; 3 cats) | diarrhea (cats; 3 cats, 2-5 hours post-inoculation) | vomiting, number of times (cats; 3 cats, over a period of 2-5 hours post-inoculation) | rectal temperature, peak (cats; seven hours post-inoculation) [° F] |
| --- | --- | --- | --- | --- | --- | --- | --- | --- | --- | --- | --- |
| 2-acetamido-2-deoxy-D-glucos-3-O-yl-acetyl-L-prolyl-D-isoglutamine | 5.4 | 8.0 | – | – | – | – | – | – | – | – | – |
| CC(=O)N[C@H]1C(O)O[C@H](CO)[C@@H](O)[C@@H]1OC(C)C(=O)N[C@H](C)C(=O)N[C@H](CCC(=O)O)C(N)=O (stereo partly drawn) [2-(2-acetamido-2-deoxy-D-glucos-3-0-yl)-D-propionyl-L-alanyl-D-isoglutamine] | 3.3 | 3.7 | two of the dogs | All of the dogs | All of the dogs | all animals had returned to normal | Food was refused | became depressed and unkempt | All animals had diarrhea | 4-6 times | 104 |
